In general, IC50 refers to the point on the concentration scale where inhibition reaches its midpoint. Usually inhibition stands for the share of the control response that was lost under treatment. Read a low inhibition as a weak effect.

One assay deals with parental HCC-827 cells. Nature of the assay: Apoptosis assay (Annexin V/7-AAD flow cytometry), parental HCC-827 cells. The assay is classed as cell-based, human. The note with it: 24 h. How it is done: Afterwards, the cell culture supernatant from each well was collected. […] The supernatants were then returned to each well to neutralize the Accutase solution and the cells were centrifuged at 3000 rpm, at 4 °C for 5 min. The cell pellets were washed twice with cold PBS and centrifuged again. […] Cells were resuspended in 1 x binding buffer and incubated with PE Annexin V and 7-AAD at 4 °C for 30 min. Apoptosis was measured using an LSR II flow cytometer (BD Bioscience). Experiments were carried out in at least triplicate.
(In general: Flow cytometry measures light scatter and fluorescence of single cells or particles in a stream.)

A further assay has as its target T1, Lck SH2 (Homo sapiens, UniProt P06239).
T1 construct: STAT1: 400 nM, STAT3: 210 nM, STAT5b: 300 nM, Lck SH2: 35 nM
Nature of the assay: FP-based competitive binding assay, Lck SH2 domain. The note with it: at 80 µM. The protocol: (§1) The STAT family display a high degree of homology. […] Vilsmeyer-Haack formylation of 2-hydroxy acetophenones led to 3-formyl chromones, which were subsequently converted to the acyl hydrazones by reaction with hydrazides (Fig. 1). The target molecules were tested for their abilities to inhibit binding of fluorophore-labeled peptides to the SH2 domains of STAT1[24], STAT3[25], and STAT5b[26] in assays based on fluorescence polarization (FP). The more distantly related SH2 domain of the tyrosine kinase Lck served as additional specificity control[27],[28].
(§2) Assays were performed essentially as described. In brief, protein was incubated with the test compounds for 1 h at room temperature at the following protein concentrations: STAT1: 400 nM, STAT3: 210 nM, STAT5b: 300 nM, Lck SH2: 35 nM. Subsequently, the corresponding fluorophore-labeled peptide was added: STAT1: (5-carboxyfluorescein)-GpYDKPHVL-OH, derived from the interferon-γ receptor[24]; STAT3: (5-carboxyfluorescein)-GpYLPQTV-NH2, derived from the gp130 subunit of the IL-6 receptor[25]; STAT5b: (5-carboxyfluorescein)-GpYLVLDKW-OH, derived from the erythropoietin receptor[26]; Lck SH2: (5-carboxyfluorescein)-GpYEEIP-OH, derived from the middle-T antigen. After a further hour of incubation, fluorescence polarization was measured in a plate reader (Tecan Infinite F500). Apparent IC50 data shown in Tables 1, 2, and S1 and the inhibition curves shown in Fig. 2a correspond to this time point. The majority of the pipetting work was carried out using a Biomek FXp workstation (Beckman-Coulter). Buffer composition: 10 mM Tris pH 8.0, 50 mM NaCl, 1 mM EDTA, 1 mM dithiothreitol (DTT), 0.1% Nonidet P-40, and 2% DMSO.
Supplementary Figures and Table
No Structure app. IC50 [µM] or
Supplementary Table S1: Activities of test compounds in fluorescence polarization assays against the
SH2 domains of Lck. See the Supporting Methods for details. […]

For a further assay, the target named is T2, STAT1 SH2 domain (Homo sapiens, UniProt P42224).
T2 sequence (P42224 1-750): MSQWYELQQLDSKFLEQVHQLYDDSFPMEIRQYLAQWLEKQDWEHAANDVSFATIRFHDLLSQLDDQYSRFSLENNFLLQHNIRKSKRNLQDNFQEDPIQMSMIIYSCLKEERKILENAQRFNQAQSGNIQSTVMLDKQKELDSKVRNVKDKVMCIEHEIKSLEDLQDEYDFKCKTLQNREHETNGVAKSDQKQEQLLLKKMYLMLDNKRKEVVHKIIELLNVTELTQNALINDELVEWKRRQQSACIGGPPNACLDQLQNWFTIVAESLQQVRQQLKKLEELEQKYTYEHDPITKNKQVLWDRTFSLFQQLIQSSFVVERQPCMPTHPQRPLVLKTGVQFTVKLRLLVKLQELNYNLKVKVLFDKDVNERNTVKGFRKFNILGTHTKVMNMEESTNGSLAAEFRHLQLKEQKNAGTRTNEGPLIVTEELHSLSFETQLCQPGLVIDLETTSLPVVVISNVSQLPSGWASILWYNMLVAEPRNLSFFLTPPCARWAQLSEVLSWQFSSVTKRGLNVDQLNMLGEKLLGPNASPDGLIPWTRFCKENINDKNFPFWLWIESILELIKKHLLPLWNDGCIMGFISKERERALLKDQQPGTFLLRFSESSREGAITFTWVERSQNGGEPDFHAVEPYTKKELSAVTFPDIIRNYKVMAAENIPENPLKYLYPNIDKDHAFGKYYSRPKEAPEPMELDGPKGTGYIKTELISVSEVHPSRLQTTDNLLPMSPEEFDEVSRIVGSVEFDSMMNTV
Put plainly: FP-based competitive binding assay, STAT1 SH2 domain. The note with it: mean ± s.d., three experiments. How it is done: as §1, §2

The subject of assay [1] is STAT3 Tyr705 phosphorylation. Nature of the assay: Western Blot, STAT3 Tyr705 phosphorylation in parental HCC-827 cells. The class given is cell-based, human. As to conditions: 24 h. The protocol:
HepG2 cells were plated in 6-well plates (Corning #3516) and allowed to reach approximately 60% confluence. The medium was then replaced with serum-free medium for 24 h. Cells were subsequently pre-treated with compound or DMSO (final DMSO concentration: 0.2%) for 1 h at 37 °C, prior to stimulation for 15 min with 50 ng/mL IFNγ (Pepro Tech, for STAT1 phosphorylation), or 30 min with 50 ng/mL IL-6 (Pepro Tech, for STAT3 phosphorylation). Cells were treated with test compound or DMSO for 1 h (final DMSO concentration 0.2%). K562 cells (1.5 × 10^6 cells per well) were seeded in 6-well plates (Corning #3516) and were treated with test compound or DMSO for 1.5 h (final DMSO concentration 0.2%). […] Afterwards, cells were treated with the test compounds or DMSO (final DMSO concentration: 0.2%) for 24 h. Afterwards, the cells were washed twice with cold phosphate buffered saline (PBS). […]
Lysates were separated on a polyacrylamide gel under denaturing conditions, and transferred to a nitrocellulose membrane. STAT phosphorylation was assessed using rabbit monoclonal antibodies against the phosphorylated forms only of STAT1, STAT3 or STAT5 (Cell Signaling, 1:1000) with secondary antibody swine anti-rabbit HRP from Dako, 1:3000), followed by reblotting with rabbit monoclonal antibodies against total STAT1, STAT3 or STAT5 (Cell Signaling), and subsequently β-actin loading control. […]
On the technique in general: In western blotting, separated proteins are transferred to a membrane and probed.

“Also recorded” adds a separate entry of the source.

T1 sequence (P06239 127-224 limits assumed): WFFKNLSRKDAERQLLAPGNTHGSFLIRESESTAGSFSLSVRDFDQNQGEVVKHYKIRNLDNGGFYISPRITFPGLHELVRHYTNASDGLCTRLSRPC

For `CC(C)(C)c1ccc2occ(/C=N/NC(=O)c3cccnc3)c(=O)c2c1` [Compound 8], the “increase in rate of apoptosis relative to DMSO control” value in the assay on parental HCC-827 cells is listed as “up to four-fold increase”. Further, the Lck inhibition result on Lck SH2 is recorded as “no inhibition”. Besides, the IC50 on STAT1 SH2 domain (1 h with protein, then 1 h with peptide, read-out: STAT1 app. IC50) came out at 24 ± 4 µM. Besides, the “STAT3 Tyr705 phosphorylation” value in assay [1] was “dose-dependent inhibitory effect”.

With `CCC(C)(C)c1ccc2occ(/C=N/NC(=O)c3cccnc3)c(=O)c2c1` [Compound 9], the “increase in rate of apoptosis relative to DMSO control” value in the assay on parental HCC-827 cells is “did not significantly increase apoptosis; also recorded: did not increase the apoptotic rate”. Further, at Lck SH2, the Lck inhibition result was “no inhibition”. Moreover, testing at 80 µM at STAT1 SH2 domain (at 80 µM) gave an inhibition of 36 ± 4%. The “STAT3 Tyr705 phosphorylation” value in assay [1] is given as “did not reduce STAT3 Tyr705 phosphorylation”.
